Source: US20220356174A1, “PYRIDIN-2-ONE COMPOUNDS USEFUL AS SMARCA2 ANTAGONISTS” (Epizyme, Inc., priority 2018, published 2022)
Read-outs that look alike come from different tables or passages of the source. Each block holds one compound with its values, some of them ahead of it.

Columns and labels:
[1] = molecular target: FL-SMARCA4 (Homo sapiens, UniProt P51532); assay: SMARCA4 ATPase activity assay (ADP-Glo, chicken mononucleosome substrate)
[2] = molecular target: T1, FL-SMARCA2 (full-length human SMARCA2 isoform 1) (Homo sapiens, UniProt P51531); assay: SMARCA2 ATPase activity assay (ADP-Glo, chicken mononucleosome substrate); type: biochemical; settings: ATP 250 uM
T1 construct: FLAG tag (YKDDDDK) (C); made in house; host or cells: Sf21 insect cells (baculovirus, pFastBacI)
T1 sequence (P51531 with tags, fused parts or gaps): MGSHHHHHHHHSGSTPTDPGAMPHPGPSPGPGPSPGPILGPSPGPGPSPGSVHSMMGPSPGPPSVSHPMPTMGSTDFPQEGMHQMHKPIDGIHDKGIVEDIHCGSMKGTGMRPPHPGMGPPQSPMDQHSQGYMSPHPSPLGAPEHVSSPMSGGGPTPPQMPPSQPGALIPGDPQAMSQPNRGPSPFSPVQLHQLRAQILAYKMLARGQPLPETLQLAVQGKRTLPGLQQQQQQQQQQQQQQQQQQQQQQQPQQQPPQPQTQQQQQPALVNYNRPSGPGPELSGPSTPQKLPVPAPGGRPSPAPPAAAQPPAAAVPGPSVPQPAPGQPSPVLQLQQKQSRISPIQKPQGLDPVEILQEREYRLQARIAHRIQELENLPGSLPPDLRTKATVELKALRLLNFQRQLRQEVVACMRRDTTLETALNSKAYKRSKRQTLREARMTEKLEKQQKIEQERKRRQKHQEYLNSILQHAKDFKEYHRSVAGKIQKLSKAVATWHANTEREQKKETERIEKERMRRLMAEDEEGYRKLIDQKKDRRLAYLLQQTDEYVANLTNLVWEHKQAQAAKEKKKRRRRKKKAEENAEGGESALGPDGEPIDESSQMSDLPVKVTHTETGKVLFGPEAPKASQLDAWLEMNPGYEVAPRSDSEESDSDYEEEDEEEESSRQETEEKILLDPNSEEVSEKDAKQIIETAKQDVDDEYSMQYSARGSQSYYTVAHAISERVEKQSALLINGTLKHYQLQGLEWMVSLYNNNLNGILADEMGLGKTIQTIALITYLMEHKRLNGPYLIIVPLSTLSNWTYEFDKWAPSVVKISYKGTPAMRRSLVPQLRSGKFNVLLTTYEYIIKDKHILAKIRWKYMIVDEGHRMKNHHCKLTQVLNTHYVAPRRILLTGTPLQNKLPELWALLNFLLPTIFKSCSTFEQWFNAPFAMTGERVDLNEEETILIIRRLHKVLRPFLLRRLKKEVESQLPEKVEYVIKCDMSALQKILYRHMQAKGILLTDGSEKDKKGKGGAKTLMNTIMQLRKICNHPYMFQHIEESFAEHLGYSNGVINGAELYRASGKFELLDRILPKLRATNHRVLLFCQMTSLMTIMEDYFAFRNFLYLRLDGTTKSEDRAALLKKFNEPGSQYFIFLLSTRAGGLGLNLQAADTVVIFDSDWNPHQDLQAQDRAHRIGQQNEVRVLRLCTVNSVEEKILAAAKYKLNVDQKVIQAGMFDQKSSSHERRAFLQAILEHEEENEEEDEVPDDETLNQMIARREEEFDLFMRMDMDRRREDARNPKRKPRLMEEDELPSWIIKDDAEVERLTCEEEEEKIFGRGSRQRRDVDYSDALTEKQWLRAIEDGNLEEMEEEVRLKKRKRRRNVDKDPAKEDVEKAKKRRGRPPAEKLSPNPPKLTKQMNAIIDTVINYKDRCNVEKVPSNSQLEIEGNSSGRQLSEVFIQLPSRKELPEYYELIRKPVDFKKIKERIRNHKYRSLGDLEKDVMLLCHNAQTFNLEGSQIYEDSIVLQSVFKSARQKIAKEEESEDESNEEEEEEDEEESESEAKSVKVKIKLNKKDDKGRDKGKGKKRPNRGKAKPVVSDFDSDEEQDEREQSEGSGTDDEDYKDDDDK

[3] = Table 3d.1, ATPase assay, enzyme 5 nM, chicken mononucleosome 10 nM, 30 min preincubation, read-out: FL-SMARCA2 IC>50
[4] = FL-SMARCA4 IC50, Table 3.2, ATPase assay, enzyme 5 nM, ATP 250 uM, chicken mononucleosome 10 nM, 30 min preincubation
[5] = Table 3.1, ATPase assay, enzyme 5 nM, chicken mononucleosome 10 nM, 30 min preincubation
[6] = FL-SMARCA4 IC50, Table 3a.2, SMARCA4 5 nM, ATP 250 uM, mononucleosome 10 nM
[7] = Table 3a.1, SMARCA2 5 nM, mononucleosome 10 nM
[8] = FL-SMARCA4 IC50, Table 3b.2, SMARCA4 5 nM, ATP 250 uM, mononucleosome 10 nM
[9] = Table 3b.1, SMARCA2 5 nM, mononucleosome 10 nM
[10] = FL-SMARCA4 IC>50, Table 3c.2, ATPase assay, enzyme 5 nM, ATP 250 uM, chicken mononucleosome 10 nM, 30 min preincubation
[11] = Table 3c.1, ATPase assay, enzyme 5 nM, chicken mononucleosome 10 nM, 30 min preincubation

Chain of FL-SMARCA4 (P51532 whole entry, canonical isoform): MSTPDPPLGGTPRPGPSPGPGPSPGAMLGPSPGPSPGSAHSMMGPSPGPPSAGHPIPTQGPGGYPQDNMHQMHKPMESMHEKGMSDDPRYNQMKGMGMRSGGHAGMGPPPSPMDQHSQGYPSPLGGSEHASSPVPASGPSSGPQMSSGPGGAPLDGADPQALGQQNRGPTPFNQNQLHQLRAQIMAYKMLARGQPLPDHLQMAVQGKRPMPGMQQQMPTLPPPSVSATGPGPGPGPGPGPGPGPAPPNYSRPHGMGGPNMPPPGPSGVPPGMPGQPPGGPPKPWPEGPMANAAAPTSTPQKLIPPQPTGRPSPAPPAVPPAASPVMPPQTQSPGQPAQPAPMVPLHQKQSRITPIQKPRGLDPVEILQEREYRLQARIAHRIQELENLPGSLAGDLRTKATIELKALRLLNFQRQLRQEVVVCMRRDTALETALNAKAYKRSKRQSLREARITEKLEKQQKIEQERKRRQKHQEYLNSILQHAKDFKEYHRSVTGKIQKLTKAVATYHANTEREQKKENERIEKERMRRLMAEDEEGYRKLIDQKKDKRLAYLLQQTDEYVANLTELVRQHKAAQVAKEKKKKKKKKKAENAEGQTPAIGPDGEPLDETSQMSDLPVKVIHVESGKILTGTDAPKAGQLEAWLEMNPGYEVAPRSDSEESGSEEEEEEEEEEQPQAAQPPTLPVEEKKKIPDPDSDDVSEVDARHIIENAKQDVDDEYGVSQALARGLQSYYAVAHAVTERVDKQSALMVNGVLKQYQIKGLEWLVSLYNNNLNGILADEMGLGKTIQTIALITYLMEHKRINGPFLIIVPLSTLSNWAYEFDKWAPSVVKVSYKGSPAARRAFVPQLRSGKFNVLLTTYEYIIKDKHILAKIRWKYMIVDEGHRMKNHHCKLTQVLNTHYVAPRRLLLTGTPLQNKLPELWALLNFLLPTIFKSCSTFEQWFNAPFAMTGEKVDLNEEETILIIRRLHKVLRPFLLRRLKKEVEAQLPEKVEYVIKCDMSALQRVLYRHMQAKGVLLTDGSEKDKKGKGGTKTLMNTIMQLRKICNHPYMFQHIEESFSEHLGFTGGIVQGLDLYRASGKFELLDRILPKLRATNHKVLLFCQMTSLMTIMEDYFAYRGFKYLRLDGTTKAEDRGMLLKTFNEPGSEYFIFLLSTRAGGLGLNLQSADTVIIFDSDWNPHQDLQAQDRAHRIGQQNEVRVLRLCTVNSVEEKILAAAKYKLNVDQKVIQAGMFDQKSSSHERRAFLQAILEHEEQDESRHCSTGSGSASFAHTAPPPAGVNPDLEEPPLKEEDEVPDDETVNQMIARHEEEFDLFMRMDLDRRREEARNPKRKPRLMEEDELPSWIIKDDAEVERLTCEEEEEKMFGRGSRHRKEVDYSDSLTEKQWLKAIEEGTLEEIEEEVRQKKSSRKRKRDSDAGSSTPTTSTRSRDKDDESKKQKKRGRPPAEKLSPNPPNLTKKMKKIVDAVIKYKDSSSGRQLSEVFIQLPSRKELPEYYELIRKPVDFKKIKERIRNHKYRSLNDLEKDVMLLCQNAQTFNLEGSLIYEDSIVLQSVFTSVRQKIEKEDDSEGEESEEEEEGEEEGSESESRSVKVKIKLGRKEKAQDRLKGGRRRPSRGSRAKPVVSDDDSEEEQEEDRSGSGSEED

IC50 ([1]; FL-SMARCA4 IC50): > 50 µM
IC50 [2, 3]: 25.1 µM
SMILES: O=C(Nc1cc(F)c(=O)n(CC(F)F)c1)c1cc(C(O)C(F)(F)F)c(Cl)s1 (centres unmarked) [Compound 47d]

IC50 [1, 4]: > 50 µM
IC50 [2, 5]: 28.4 µM
SMILES: CCn1cc(NC(=O)c2cc(C)c(Cl)s2)ccc1=O [Compound 65]

IC50 [1, 4]: > 50 µM
IC50 [2, 5]: 27.8 µM
SMILES: CCn1cc(NC(=O)c2cc(Cl)c(Cl)s2)cc(C)c1=O [Compound 105]

IC50 [1, 4]: 0.715 µM
IC50 [2, 5]: 0.147 µM
SMILES: Cn1c(C(=O)Nc2cc(F)c(=O)n(CCF)c2)cc(Cl)c1Cl [Compound 153]

IC50 [1, 6]: > 50 µM
IC50 [2, 7]: > 50 µM
SMILES: CN1CC(C(=O)Nc2cc(F)c(=O)n(CCF)c2)CC1=O (centres unmarked) [Compound 51a]

IC50 [1, 4]: > 50 µM
IC50 [2, 5]: > 50 µM
SMILES: CN(C)CCn1cc(NC(=O)c2cc(Cl)c(Cl)n2C)ccc1=O [Compound 89]

IC50 [1, 4]: > 50 µM
IC50 [2, 5]: > 50 µM
SMILES: CCn1cc(NC(=O)c2cc(C)nn2C)ccc1=O [Compound 16]

IC50 ([1]; FL-SMARCA4 IC50): > 50 µM
IC50 [2, 3]: 22.4 µM
SMILES: O=C(CNCC1CC1)Nc1ccc(=O)n(Cc2ccccc2Cl)c1 [Compound 6d]

IC50 [1, 6]: > 50 µM
IC50 [2, 7]: > 50 µM
SMILES: CCn1cc(NC(=O)c2cnc3c(Cl)cccn23)ccc1=O [Compound 29a]

IC50 ([1]; FL-SMARCA4 IC50): > 50 µM
IC50 [2, 3]: 48.1 µM
SMILES: CCn1cc(NC(=O)c2cc(Cl)c(Cl)s2)c(F)cc1=O [Compound 31d]

IC50 [1, 6]: 27 µM
IC50 [2, 7]: 4.91 µM
SMILES: COc1ccc2cc(C(=O)Nc3cc(F)c(=O)n(CCF)c3)[nH]c2c1 [Compound 65a]

IC50 [1, 4]: 0.527 µM
IC50 [2, 5]: 0.252 µM
SMILES: N#Cc1sc(C(=O)Nc2ccc(=O)n(CC(F)(F)F)c2)cc1Cl [Compound 127]

IC50 [1, 4]: 18.6 µM
IC50 [2, 5]: 4.12 µM
SMILES: O=C(Nc1cc(Cl)c(=O)n(CC(F)(F)F)c1)c1cc(Cl)c(Cl)s1 [Compound 102]

IC50 ([1]; FL-SMARCA4 IC50): > 50 µM
IC50 [2, 3]: 36.5 µM
SMILES: CN(C)C(=O)c1cc(C(=O)Nc2cc(F)c(=O)n(CC(F)F)c2)sc1C(F)(F)F [Compound 36d]

IC50 [1, 4]: > 50 µM
IC50 [2, 5]: > 50 µM
SMILES: O=C(Nc1cc(F)c(=O)n(CCF)c1)c1cnc(NC2CCCC2)s1 [Compound 219]

IC50 [1, 6]: > 50 µM
IC50 [2, 7]: 26.8 µM
SMILES: CCn1cc(NC(=O)c2cnc(Cl)c(Cl)c2)ccc1=O [Compound 16a]

IC50 [1, 4]: 34.7 µM
IC50 [2, 5]: 12 µM
SMILES: O=C(Nc1ccc(=O)n(CC(F)(F)F)c1)c1cc(Cl)c(Cl)n1CCF [Compound 85]

IC50 ([1]; FL-SMARCA4 IC50): > 50 µM
IC50 [2, 3]: > 50 µM
SMILES: O=C(Nc1cc(F)c(=O)n(CC(F)F)c1)c1nc(Cl)c[nH]1 [Compound 51d]

IC50 [1, 6]: > 50 µM
IC50 [2, 7]: > 50 µM
SMILES: CCn1cc(NC(=O)c2c[nH]c3c(Cl)cccc23)ccc1=O [Compound 24a]

IC50 [1, 6]: > 50 µM
IC50 [2, 7]: > 50 µM
SMILES: CCn1cc(NC(=O)[C@H]2CCC(=O)N(C)[C@@H]2c2ccncc2)ccc1=O [Compound 5a]

IC50 [1, 4]: > 50 µM
IC50 [2, 5]: > 50 µM
SMILES: CN(C)C(=O)c1sc(C(=O)Nc2cc(F)c(=O)n(CCF)c2)cc1Cl [Compound 282]

IC50 [1, 8]: > 50 µM
IC50 [2, 9]: > 50 µM
SMILES: CC(=O)Nc1ccc(C(=O)Nc2cc(F)c(=O)n(CCF)c2)cc1Cl [Compound 22b]

IC50 [1, 4]: > 50 µM
IC50 [2, 5]: 33.2 µM
SMILES: Cn1cc(NC(=O)c2coc(Br)c2)cc(Cl)c1=O [Compound 2]

IC50 [1, 10]: > 50 µM
IC50 [2, 11]: > 50 µM
SMILES: CN1Cc2cc(C(=O)Nc3cc(F)c(=O)n(CC(F)F)c3)sc2C(F)(F)C1 [Compound 115c]

IC50 [1, 4]: > 50 µM
IC50 [2, 5]: > 50 µM
SMILES: CNC(=O)c1cc(C(=O)Nc2cc(F)c(=O)n(CCF)c2)sc1Cl [Compound 291]

IC50 [1, 4]: > 50 µM
IC50 [2, 5]: > 50 µM
SMILES: O=C(Nc1ccc(=O)n(Cc2ccccc2)c1)c1ccc(Br)s1 [Compound 54]

IC50 [1, 10]: > 50 µM
IC50 [2, 11]: > 50 µM
SMILES: CN(C)CCc1cc(NC(=O)c2cc(F)c(Cl)s2)cn(CC(F)F)c1=O [Compound 17c]

IC50 [1, 8]: > 50 µM
IC50 [2, 9]: > 50 µM
SMILES: CCn1cc(NC(=O)C2C(C)(C)C2(C)C)ccc1=O [Compound 3b]

IC50 [1, 4]: 0.694 µM
IC50 [2, 5]: 0.207 µM
SMILES: N#Cc1sc(C(=O)Nc2cc(C#N)c(=O)n(CCF)c2)cc1Cl [Compound 210]

IC50 [1, 4]: > 50 µM
IC50 [2, 5]: > 50 µM
SMILES: O=C(Nc1cc(F)c(=O)n(CCc2cn[nH]c2)c1)c1cc(Cl)c(Cl)s1 [Compound 270]

IC50 [1, 4]: 11.5 µM
IC50 [2, 5]: 3.15 µM
SMILES: CCn1cc(NC(=O)c2cc(Cl)n[nH]2)ccc1=O [Compound 94]

IC50 [1, 6]: > 50 µM
IC50 [2, 7]: > 50 µM
SMILES: CCn1cc(NC(=O)c2[nH]c3ccccc3c2C)ccc1=O [Compound 18a]

IC50 [1, 8]: > 50 µM
IC50 [2, 9]: > 50 µM
SMILES: CCn1cc(NC(=O)[C@@H]2CC[C@H](Cl)C2)ccc1=O [Compound 15b]

IC50 [1, 6]: > 50 µM
IC50 [2, 7]: > 50 µM
SMILES: CCn1cc(NC(=O)c2ccc(Cl)c(C)n2)ccc1=O [Compound 35a]
